Reference: patent US11123332B2 (priority 2018, dated 2021)
“Also recorded” adds a separate entry of the source. Where two headings read alike, the source gives them in different places.

Tests used:
[1] = test system: mouse brain (c-fos expression)
Excerpt: A unique and novel approach to preclinical testing of psychiatric drugs is based on the proposition that a direct readout of drug-evoked brain activation or inhibition in an animal is the most relevant preclinical assay, because psychiatric drugs exert their effects via activation or inhibition of specific neural circuits and cell types in the brain. […] The method called “pharmacomapping” (implemented by Certerra, Inc. Farmingdale, N.Y.) is based on a largely automated drug-screening platform that comprises whole-brain detection of drug-evoked neuronal activation represented by drug-evoked expression of the immediate early gene (IEG) c-fos (Herrera and Robertson 1996). Until now, the detection of c-fos as a marker of brain activation has been done by laborious methods of in situ hybridization or immunohistochemistry in brain tissue sections, followed by mounting the sections on microscopic slides, manual imaging, and largely visual quantification. Nevertheless, over the last two decades a number of studies used these methods to test drug-evoked activity in the mouse or rat brain for various psychoactive medications, including antipsychotics, antidepressants, stimulants and anxiolytics (Engber et al., 1998; Kiss, 2018; Salminen et al., 1996; SEMBA et al., 1996; Slattery et al., 2005; Sumner et al., 2004).
In contrast to the older methods, the pharmacomapping method uses automated and standardized whole-brain immunostaining and brain clearing together with advanced microscopy (light-sheet fluorescence microscopy, LSFM), computational (e.g. machine learning) and statistical methods (FIG. 1). The first generation of this platform used serial two-photon tomography (STPT) as a method for imaging and c-fos-GFP mice expressing green fluorescent protein (GFP) under the control of the c-fos promoter (US 20140297199A1).

mouse = test: forced swim test; assay type: in vivo; settings: for time spent in floating (immobility) during a 6 min forced swim: compared to control vehicle-treated group, FIG. 5; for time spent floating in forced swim: single dose 10 mg/kg, vs vehicle
Protocol: The forced swim test is a frequently used behavioral protocol with a well-established therapeutic predictability for a broad range of antidepressants including ketamine (Porsolt et al. 1977; Cryan and Mombereau 2004; Cryan et al. 2005; Lucki et al. 2001). In this test the mouse is put in a beaker filled with water and the time spent struggling, swimming and floating is measured, with the time spent floating when the mouse stops struggling to swim—being used as a behavioral correlate of depression.

[2] = test system: combined delta, theta and alpha activity; settings: 160 minutes after the first treatment; Nutt et al (2015); cited from earlier work
[3] = cited from earlier work; for Apparent t1/2: harmonic mean N = 10; for Tmax: median N = 10
insomnia = settings: three-month efficacy study; cited from earlier work
[4] = test system: patients with severe major depressive disorder; settings: daily oral gaboxadol 5 mg or 10 mg with escitalopram 20 mg, 490 patients; cited from earlier work
[5] = acute single dose 10 mg/kg, 10 mg/kg
[6] = 10 mg I.V., geometric mean N = 10
[7] = 10 mg Oral, geometric mean N = 10

CNC1(c2ccccc2Cl)CCCCC1=O (centres unmarked) [ketamine]
drug-evoked brain activation (pharmacomap) ([1]; 6 mg/kg alone): neither gaboxadol at 3 mg/kg nor ketamine at 6 mg/kg alone evoked any brain activation detectable
drug-evoked brain activation (pharmacomap) ([1]; acute single dose 5 mg/kg): modest activation
drug-evoked brain activation (pharmacomap) [1, 5]: very robust and broad activation; also recorded: very broad activation pattern
drug-evoked brain activation (pharmacomap) ([1]; acute single dose 100 mg/kg): modest activation
time spent in floating (immobility) during a 6 min forced swim (mouse): significantly reduced
time spent floating in forced swim (mouse; 1 hour after drug delivery): significantly decreases
time spent floating in forced swim (mouse; 24 hours after drug delivery): significantly decreases

Oc1noc2c1CCNC2 [gaboxadol, 4,5,6,7-tetrahydroisoxazolo (5,4-c) pyridin-3-ol]
whole head MEG planar gradiometer increase in combined delta, theta and alpha activity [2]: ≥ +3
fe ([3]; 2.5 mg single oral dose, geometric mean N = 10): 43%
AUC0-∞ ([3]; 2.5 mg single oral dose, geometric mean N = 10, potency adjusted): 90 ng·h/mL
Apparent t1/2 ([3]; 2.5 mg single oral dose): 1.5 h
Tmax ([3]; 2.5 mg single oral dose): 0.5 h
fe ([3]; 5 mg single oral dose, geometric mean N = 10): 45%
Apparent t1/2 ([3]; 5 mg single oral dose): 1.5 h
Tmax ([3]; 5 mg single oral dose): 0.6 h
AUC0-∞ [3, 6]: 380 ng·h/mL
fe [3, 6]: 53%
Apparent t1/2 ([3]; 10 mg I.V.): 1.5 h
CLR [3, 7]: 250 mL/min
fe [3, 7]: 53%
Apparent t1/2 ([3]; 10 mg Oral): 1.6 h
Tmax ([3]; 10 mg Oral): 0.5 h
fe ([3]; 15 mg single oral dose, geometric mean N = 10): 50%
Apparent t1/2 ([3]; 15 mg single oral dose): 1.5 h
Tmax ([3]; 15 mg single oral dose): 0.5 h
fe ([3]; 20 mg single oral dose, geometric mean N = 10): 53%
Apparent t1/2 ([3]; 20 mg single oral dose): 1.6 h
Tmax ([3]; 20 mg single oral dose): 0.6 h
dose proportionality of plasma AUC0-∞ and Cmax ([3]; dose range 2.5 to 20 mg oral): dose proportional increases
half-life (t1/2) ([3]; independent of dose across 2.5 to 20 mg oral): 1.5 h
drug-evoked brain activation (pharmacomap) ([1]; 3 mg/kg alone): neither gaboxadol at 3 mg/kg nor ketamine at 6 mg/kg alone evoked any brain activation detectable
drug-evoked brain activation (pharmacomap) [1, 5]: very similar brain activation as ketamine
drug-evoked brain activation (pharmacomap) ([1]; acute single dose 10 mg/kg, listed as Gaboxadol, 10 mg/kg): broad brain activation that is highly similar to that of ketamine
time spent in floating (immobility) during a 6 min forced swim (mouse): significantly reduced
time spent floating in forced swim (mouse; 1 hour after drug delivery): nearly identical behavioral effect as the ketamine group
time spent floating in forced swim (mouse; 24 hours after drug delivery): nearly identical behavioral effect as the ketamine group
effects in sleep onset and sleep maintenance (insomnia): failed to show significant effects
additional benefit in treatment of severe major depressive disorder [4]: no additional benefit
